Measured values: patent publication US5545656A, “2-Oxidole-1-carboxamide pharmaceutical agents for the treatment of alzheimer's disease” (Pfizer Inc., priority 1995, dated 1996)

Key:
Format in all cases: cell-based
[1] = system: production of PGD2 (cyclooxygenase pathway) by RBL-1 cells; test: Inhibition of the cyclooxygenase pathway (PGD2 formation) in RBL-1 cells; settings: Rattus norvegicus, 5 min, [14C]-arachidonic acid plus calcium ionophore, N in brackets, read-out: RBL-cells PGD2 formation IC50 ± SD (N)
Experimental: METHOD FOR ASSESSING THE INHIBITION OF THE CYCLOOXYGENASE PATHWAY IN (RBL) CELLS
a) RBL-1 cell incubations. […] A 0.5 ml allquot of cell suspension was preincubated at 30° C. for 10 minutes with 1 μl dimethyl sulfoxide (DMSO) solution of drug. […] Five minutes later, the incubation was terminated by the addition of a 0.27 ml volume of acetonitrile (ACN)/acetic acid (HOAc) (100:3). The mixture was then clarified of precipitated protein by centrifugation. Analysis of 5-LO/COX pathway products was performed by radioactivity monitoring after separation by high performance liquid chromatography (HPLC). […] The area under the curve (AUC) as measured in integration units for each product was compared to the average AUC value for untreated (no drug) controls. […] Half-maximal (IC50) points were estimated from these curves.

[2] = system: IL-1β release by human monocytes; test: ATP kick, slightly different assay that employed metabolically labeled cells; settings: Monocyte, read-out: Human Monocyte AtP kick IC50 (No. Trials), starred values
Description: *Values for tenidap (the first compound in the table), and in one case
ilonidap (the second compound in the table) were derived from a slightly
different assay that employed metabolically labeled cells.

[3] = system: IL-1β release by human monocytes; test: ATP-induced IL-1β posttranslational processing (ATP kick), ELISA; settings: Monocyte, LPS-stimulated human monocytes, IL-1β ELISA, read-out: Human Monocyte AtP kick % Inh.
Experimental: PROTOCOL FOR ATP-INDUCED IL-Iβ POSTTRANSLATIONAL PROCESSING
Cells: Human monocytes were isolated by Ficoll-Hypaque centrifugation of heparinized blood. The monocyte band off the gradient was collected, diluted with RPMI 1640, 5% fetal bovine serum (FBS), 20 mM N-[2[hydroxyethyl]piperazine-N-[2-ethanesulfonic acid] (Hepes), pH 7.3 (40 ml) and the cells were collected by centrifugation. The cell pellet was washed twice with 30 ml of RPMI 1640, 5% FBS, 20 mM Hepes (Maintenance Medium). The monocytes were resuspended in 50 ml of the Maintenance Medium. Into each well of a 96 well plate was added […] mononuclear cells. The cell suspension was diluted to a final concentration of 1.5×10^5 mononuclear cells. (To accomplish this, the cell suspension was diluted to a final concentration of 1.5×10^6 cell/ml and 0.2 ml was added to each well of the plate.) After incubating at 37° C. for 2 hours, the supernatant containing non-adherent cells was removed by aspiration. The adherent cells were washed once with 0.15 ml of Maintenance medium. Then, 0.15 ml of fresh Maintenance Medium was added and the cells were incubated overnight at 37° C.
Stimulation: Lipopolysaccharide (LPS) was added to a final concentration of 10 ng/ml and incubated at 37° C. for 2 hours. […]

| IC50 [1] [µM] | SMILES | IC50 [2] [µM] | inhibition at 19 µM [3] [%] |
| --- | --- | --- | --- |
| 0.7 | NC(=O)N1C(=O)C(C(=O)c2ccsc2)c2cc(Cl)ccc21 (centres unmarked) [Cl H 3'-thienyl] |  | 14 |
| 37 | NC(=O)N1C(=O)C(C(=O)C(F)(F)F)c2cc(Cl)ccc21 (centres unmarked) [Cl H Trifluoromethyl] |  |  |

The remaining lines, values behind:

| SMILES | IC50 [1] [µM] | IC50 [2] [µM] | inhibition at 19 µM [3] [%] |
| --- | --- | --- | --- |
| NC(=O)N1C(=O)C(C(=O)c2ccoc2)c2cc(Cl)ccc21 (centres unmarked) [Cl H 3'-furyl] | 3.2 |  |  |
| NC(=O)N1C(=O)C(C(=O)c2cccs2)c2cc(Cl)ccc21 (centres unmarked) [tenidap, 5-chloro-2,3-dihydro-2-oxo-3-(2-thienylcarbonyl)-indole-1-carboxamide] | 0.02 ± 0.02 | 40 |  |
| Cc1ccc2c(c1)C(C(=O)c1cccs1)C(=O)N2C(N)=O (centres unmarked) [CH3 H 2'-thienyl] | 99 |  | 32 |
